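Compound exposure: 48 hours, 5 concentrations, 96-well plates. GI50 is the concentration that inhibits growth by half.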 Activity calls are given as the source filed them. Rule as the data show it: active = GI50 up to about 1.1 µM and inactive = higher.
Tests used:
Assay in all cases: inhibition of tumour cell growth, NCI panel, 48 h
[1] = test system: IGROV-1
[2] = test system: MCF7
[3] = test system: Hs-578T
[4] = test system: NCI/ADR-RES
[5] = test system: OVCAR-8
[6] = test system: KM12
[7] = test system: MOLT-4
[8] = test system: ACHN
[9] = test system: UO-31
[10] = test system: RXF 393
[11] = test system: NCI-H522
[12] = test system: RPMI-8226
[13] = test system: DU-145
[14] = test system: CCRF-CEM
[15] = test system: PC-3
[16] = test system: NCI-H460
[17] = test system: SF-268
[18] = test system: NCI-H226
[19] = test system: HCT-15
[20] = test system: BT-549
[21] = test system: SK-OV-3
[22] = test system: SN12C
[23] = test system: CAKI-1
[24] = test system: EKVX
[25] = test system: SK-MEL-28
[26] = test system: LOX IMVI
[27] = test system: MDA-MB-231
[28] = test system: HOP-62
[29] = test system: T47D
[30] = test system: SK-MEL-2
[31] = test system: HL-60
[32] = test system: SW-620
[33] = test system: UACC-257
[34] = test system: OVCAR-4
[35] = test system: U-251
[36] = test system: OVCAR-5
[37] = test system: TK-10
[38] = test system: MDA-MB-435
[39] = test system: SNB-75
[40] = test system: SK-MEL-5
[41] = test system: UACC-62
[42] = test system: OVCAR-3
[43] = test system: K562
[44] = test system: Malme-3M
[45] = test system: SF-295
[46] = test system: HCT-116
[47] = test system: HT-29
[48] = test system: SNB-19
[49] = test system: SF-539
[50] = test system: COLO 205
[51] = test system: 786-0
[52] = test system: HCC 2998
[53] = test system: A549
[54] = test system: MDA-N
[55] = test system: SR
[56] = test system: M14
[57] = test system: NCI-H23

In the case of `CC1=C(C(=O)OC(C)C)C(c2ccccc2[N+](=O)[O-])C(C(=O)OC(CO[N+](=O)[O-])CO[N+](=O)[O-])=C(C)N1` (configuration not stated), the GI50 [1] is reported as 5.26 µM (inactive), the GI50 [2] is reported as 3.55 µM (inactive) and the GI50 [3] is reported as 3.36 µM (inactive). The GI50 [4] was 3.27 µM (inactive), the GI50 [5] was 3.28 µM (inactive) and the GI50 [6] was 3.75 µM (inactive). The GI50 [7] was 1.46 µM (inactive), the GI50 [8] was 3.21 µM (inactive) and the GI50 [9] was 3.56 µM (inactive). The GI50 [10] was 2.7 µM (inactive), the GI50 [11] was 2.42 µM (inactive) and the GI50 [12] was 2.98 µM (inactive). For the same molecule, the GI50 [13] was 5.68 µM (inactive), the GI50 [14] was 2.09 µM (inactive) and the GI50 [15] was 2.14 µM (inactive). The GI50 [16] was 3.1 µM (inactive), the GI50 [17] was 2.51 µM (inactive) and the GI50 [18] was 7.16 µM (inactive). The GI50 [19] was 3.08 µM, the GI50 [20] was 3.52 µM (inactive) and the GI50 [21] was 3.15 µM (inactive). The GI50 [22] was 3.8 µM (inactive), the GI50 [23] was 3.32 µM (inactive) and the GI50 [24] was 2.85 µM (inactive). For the same molecule, the GI50 [25] was 4.01 µM (inactive), the GI50 [26] was 2.68 µM (inactive) and the GI50 [27] was 5.68 µM (inactive). For the same molecule, the GI50 [28] was 3.07 µM (inactive), the GI50 [29] was 4.99 µM (inactive) and the GI50 [30] was 2.99 µM (inactive). For the same molecule, the GI50 [31] was 6.25 µM (inactive), the GI50 [32] was 4.03 µM (inactive) and the GI50 [33] was 3.85 µM (inactive). The GI50 [34] was 2.12 µM (inactive), the GI50 [35] was 2.99 µM (inactive) and the GI50 [36] was 13.8 µM (inactive). The GI50 [37] was 6.27 µM (inactive), the GI50 [38] was 3.48 µM (inactive) and the GI50 [39] was 1.54 µM (inactive). For the same molecule, the GI50 [40] was 2.7 µM (inactive), the GI50 [41] was 2.07 µM (inactive) and the GI50 [42] was 6.49 µM (inactive). For the same molecule, the GI50 [43] was 2.81 µM (inactive), the GI50 [44] was 3.91 µM (inactive) and the GI50 [45] was 2.1 µM (inactive). The GI50 [46] was 2.55 µM (inactive), the GI50 [47] was 2.81 µM (inactive) and the GI50 [48] was 3.44 µM (inactive). The GI50 [49] was 3.18 µM (inactive), the GI50 [50] was 5.24 µM (inactive) and the GI50 [51] was 3.62 µM (inactive). For the same molecule, the GI50 [52] was 5.83 µM (inactive), the GI50 [53] was 3.09 µM (inactive) and the GI50 [54] was 2.79 µM (inactive). The GI50 [55] was 18.6 µM (inactive), the GI50 [56] was 3.74 µM (inactive) and the GI50 [57] was 4.27 µM (inactive).

From ChEMBL document CHEMBL1201862, “PubChem BioAssay data set” (2004)
